In article PMC9602792, “Preclinical evaluation of the epithelial sodium channel inhibitor AZD5634 and implications on human translation” (American Journal of Physiology - Lung Cellular and …, 2022):

Assays:
ENaC = target: T1, ENaC (Homo sapiens, UniProt P37088+P51168+P51170); assay: Ussing chamber Isc in F508del-homozygous CF HBEC cultures; format: cell-based
T1 construct: host or cells: primary normal human bronchial epithelial cells, ALI culture
T1 sequence (P37088 1-669): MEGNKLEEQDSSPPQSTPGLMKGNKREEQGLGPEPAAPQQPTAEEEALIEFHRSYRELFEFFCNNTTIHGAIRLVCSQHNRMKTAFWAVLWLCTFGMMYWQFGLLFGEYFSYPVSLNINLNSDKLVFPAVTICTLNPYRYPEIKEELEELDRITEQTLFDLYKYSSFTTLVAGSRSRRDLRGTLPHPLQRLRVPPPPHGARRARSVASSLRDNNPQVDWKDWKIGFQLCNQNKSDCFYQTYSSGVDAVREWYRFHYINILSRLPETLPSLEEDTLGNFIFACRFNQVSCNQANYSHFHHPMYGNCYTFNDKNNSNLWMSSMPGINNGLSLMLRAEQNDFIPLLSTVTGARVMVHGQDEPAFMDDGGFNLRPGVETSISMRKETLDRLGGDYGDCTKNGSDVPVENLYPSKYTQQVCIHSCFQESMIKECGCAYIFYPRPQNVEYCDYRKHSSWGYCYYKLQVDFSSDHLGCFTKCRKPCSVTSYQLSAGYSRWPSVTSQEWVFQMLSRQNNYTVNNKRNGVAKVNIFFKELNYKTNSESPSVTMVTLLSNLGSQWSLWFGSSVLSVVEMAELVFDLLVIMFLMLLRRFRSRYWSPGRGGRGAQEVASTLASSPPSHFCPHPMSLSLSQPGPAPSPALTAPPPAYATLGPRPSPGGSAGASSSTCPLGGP
T1 sequence (P51168 1-640): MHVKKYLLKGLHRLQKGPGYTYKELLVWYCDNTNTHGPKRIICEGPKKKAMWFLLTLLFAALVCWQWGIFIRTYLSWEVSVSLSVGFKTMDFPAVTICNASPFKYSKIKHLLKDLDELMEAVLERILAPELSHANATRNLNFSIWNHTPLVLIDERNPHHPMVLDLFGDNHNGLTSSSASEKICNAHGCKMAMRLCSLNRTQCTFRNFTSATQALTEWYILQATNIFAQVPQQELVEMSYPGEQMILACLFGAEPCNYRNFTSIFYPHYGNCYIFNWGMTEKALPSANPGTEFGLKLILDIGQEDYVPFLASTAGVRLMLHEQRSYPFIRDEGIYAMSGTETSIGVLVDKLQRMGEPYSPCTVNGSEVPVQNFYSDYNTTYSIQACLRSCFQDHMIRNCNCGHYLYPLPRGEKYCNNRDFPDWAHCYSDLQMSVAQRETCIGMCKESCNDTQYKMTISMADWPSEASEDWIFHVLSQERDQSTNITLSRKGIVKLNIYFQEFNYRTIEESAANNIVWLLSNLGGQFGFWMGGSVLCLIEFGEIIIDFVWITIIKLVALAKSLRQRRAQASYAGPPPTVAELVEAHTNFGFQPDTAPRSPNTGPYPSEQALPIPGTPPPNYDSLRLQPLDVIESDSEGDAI
T1 sequence (P51170 1-649): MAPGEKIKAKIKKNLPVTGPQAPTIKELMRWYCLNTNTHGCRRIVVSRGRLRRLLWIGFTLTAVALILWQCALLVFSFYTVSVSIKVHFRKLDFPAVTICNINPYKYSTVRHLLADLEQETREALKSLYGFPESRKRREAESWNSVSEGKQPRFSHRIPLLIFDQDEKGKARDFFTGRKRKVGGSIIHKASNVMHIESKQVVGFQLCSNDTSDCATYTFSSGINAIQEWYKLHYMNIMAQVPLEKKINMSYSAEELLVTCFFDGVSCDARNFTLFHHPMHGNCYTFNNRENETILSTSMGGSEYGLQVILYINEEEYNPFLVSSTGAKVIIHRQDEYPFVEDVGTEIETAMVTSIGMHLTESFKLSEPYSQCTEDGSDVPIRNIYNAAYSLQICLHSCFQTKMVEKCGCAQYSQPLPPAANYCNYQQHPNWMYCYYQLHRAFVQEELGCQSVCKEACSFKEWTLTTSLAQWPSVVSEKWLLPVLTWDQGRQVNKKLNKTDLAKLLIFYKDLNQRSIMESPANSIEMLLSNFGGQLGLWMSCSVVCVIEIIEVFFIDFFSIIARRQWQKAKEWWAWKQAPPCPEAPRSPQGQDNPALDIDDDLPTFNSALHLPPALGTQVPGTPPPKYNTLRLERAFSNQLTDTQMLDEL
Protocol: Using previously described techniques ([2], [37]), epithelial cells were harvested from excised lung tissue derived from CF donors homozygous for F508del CFTR, expanded, and grown until confluency was attained. […] To stimulate fresh mucus secretion and formation of an even ASL layer, the cells were washed 48–72 h before experimentation with PneumaCult ALI media (80 µL), added apically, and then aspirated following 30–45 min incubation at 37°C. The washing process was repeated with a 15-min incubation period and the mucus layer was allowed to reestablish, after which the cells were treated with 1 µL of AZD5634 (1 µM, apical), alone and in combination with lumacaftor and ivacaftor (luma/iva; 3 µM/10 µM, basolateral). PBS (1% DMSO, apical) served as a vehicle control. […] Only passage 1 and 2 monolayers were used for these studies.
CFTR-dependent ion transport electrophysiology was measured in HBEC cultures by Isc using modified P2300 Ussing chambers (Physiologic Instruments, San Diego, CA) as previously described ([37], [38]). […] All chambers were maintained at 37°C and agonist stimulation was initiated within 15 min of placement in the chambers.
Descriptive statistics were calculated and means compared using unpaired or paired t tests, or ANOVA, with post hoc analyses conducted for multiple comparisons where appropriate. For analyses of functional anatomy of en bloc trachea, a mixed linear model was used that corrected for within-animal correlation. All tests were two-sided and were computed using GraphPad Prism (GraphPad Software, Inc., La Jolla, CA). P-values <0.05 were considered significant. Statistics are reported as means ± SE, unless indicated otherwise.

hERG = target: T2, hERG (Homo sapiens, UniProt Q12809); assay: Secondary pharmacology binding panel (Millipore & Cerep); conditions: at 10 µM
T2 construct: Millipore & Cerep (outsourced panels)
Text: As pharmacological properties regarding selectivity are crucial for the development of ENaC inhibitors, we first assessed the properties of AZD5634 through a standard battery of assessments.

[1] = tested on: sodium/hydrogen exchangers; parameters: method as in PMID 33974881; conditions: specificity unknown; cited from earlier work

T2 sequence (Q12809 whole entry): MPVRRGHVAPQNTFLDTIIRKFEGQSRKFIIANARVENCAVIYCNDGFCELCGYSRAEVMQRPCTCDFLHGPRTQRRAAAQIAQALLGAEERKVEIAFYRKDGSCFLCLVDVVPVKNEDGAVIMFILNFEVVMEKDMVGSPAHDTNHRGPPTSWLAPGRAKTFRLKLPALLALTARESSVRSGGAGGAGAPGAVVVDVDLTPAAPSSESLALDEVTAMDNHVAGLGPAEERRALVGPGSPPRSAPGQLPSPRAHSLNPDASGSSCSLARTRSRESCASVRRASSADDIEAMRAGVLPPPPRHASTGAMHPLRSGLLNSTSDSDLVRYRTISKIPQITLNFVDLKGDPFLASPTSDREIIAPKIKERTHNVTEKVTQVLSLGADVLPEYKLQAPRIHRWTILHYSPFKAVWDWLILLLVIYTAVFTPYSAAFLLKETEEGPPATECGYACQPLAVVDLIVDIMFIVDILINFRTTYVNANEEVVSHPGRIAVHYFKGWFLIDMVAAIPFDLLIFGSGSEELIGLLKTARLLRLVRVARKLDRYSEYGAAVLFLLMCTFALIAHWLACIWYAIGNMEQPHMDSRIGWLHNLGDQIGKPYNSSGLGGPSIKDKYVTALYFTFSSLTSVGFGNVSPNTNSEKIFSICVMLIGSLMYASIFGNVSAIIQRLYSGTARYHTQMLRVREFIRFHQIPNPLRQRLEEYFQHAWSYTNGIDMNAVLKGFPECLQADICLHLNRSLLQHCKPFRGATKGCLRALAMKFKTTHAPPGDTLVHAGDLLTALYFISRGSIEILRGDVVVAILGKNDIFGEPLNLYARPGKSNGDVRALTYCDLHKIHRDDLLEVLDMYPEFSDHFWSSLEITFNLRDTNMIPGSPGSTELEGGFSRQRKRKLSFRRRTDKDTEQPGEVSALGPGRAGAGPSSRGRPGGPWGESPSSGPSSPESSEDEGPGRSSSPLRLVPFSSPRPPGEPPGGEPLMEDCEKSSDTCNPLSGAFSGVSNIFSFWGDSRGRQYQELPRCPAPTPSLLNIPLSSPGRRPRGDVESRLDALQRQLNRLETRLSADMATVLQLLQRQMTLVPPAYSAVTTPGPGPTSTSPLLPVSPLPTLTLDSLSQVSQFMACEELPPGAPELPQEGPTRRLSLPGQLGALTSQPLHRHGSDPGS

AZD5634
EC50 (ENaC; F508del-homozygous HBE ALI cultures, read-out: half maximal effective concentration (EC50), cumulative drug effect on Isc): 45.2 nM
incremental Isc change (ENaC; at 100 nM): −6.4 ± 1.6
cumulative ΔIsc (ENaC; at the maximum concentration (10,000 nM)): −25.3 ± 5.9
further reduction in Isc upon acute addition of benzamil (ENaC; benzamil 10 μM after maximal concentration of test drug): no further appreciable reductions in Isc
hERG inhibition (hERG): 13%
effect on sodium/hydrogen exchangers [1]: blocks sodium/hydrogen exchangers
